Results on 19 compounds are retold here after patent US7078428B2, “Isoindolone derivatives, preparation process and intermediates of this process, their use as medicaments, and pharmaceutical compositions comprising them” (Sanofi-Aventis Deutschland GmbH, priority 2002, dated 2006).

Values joined by “and” are separate entries in the source; they are usually repeats but may differ in a detail not shown here. Equal values may be shown once.

T1 sequence (P19634 whole entry, species assumed): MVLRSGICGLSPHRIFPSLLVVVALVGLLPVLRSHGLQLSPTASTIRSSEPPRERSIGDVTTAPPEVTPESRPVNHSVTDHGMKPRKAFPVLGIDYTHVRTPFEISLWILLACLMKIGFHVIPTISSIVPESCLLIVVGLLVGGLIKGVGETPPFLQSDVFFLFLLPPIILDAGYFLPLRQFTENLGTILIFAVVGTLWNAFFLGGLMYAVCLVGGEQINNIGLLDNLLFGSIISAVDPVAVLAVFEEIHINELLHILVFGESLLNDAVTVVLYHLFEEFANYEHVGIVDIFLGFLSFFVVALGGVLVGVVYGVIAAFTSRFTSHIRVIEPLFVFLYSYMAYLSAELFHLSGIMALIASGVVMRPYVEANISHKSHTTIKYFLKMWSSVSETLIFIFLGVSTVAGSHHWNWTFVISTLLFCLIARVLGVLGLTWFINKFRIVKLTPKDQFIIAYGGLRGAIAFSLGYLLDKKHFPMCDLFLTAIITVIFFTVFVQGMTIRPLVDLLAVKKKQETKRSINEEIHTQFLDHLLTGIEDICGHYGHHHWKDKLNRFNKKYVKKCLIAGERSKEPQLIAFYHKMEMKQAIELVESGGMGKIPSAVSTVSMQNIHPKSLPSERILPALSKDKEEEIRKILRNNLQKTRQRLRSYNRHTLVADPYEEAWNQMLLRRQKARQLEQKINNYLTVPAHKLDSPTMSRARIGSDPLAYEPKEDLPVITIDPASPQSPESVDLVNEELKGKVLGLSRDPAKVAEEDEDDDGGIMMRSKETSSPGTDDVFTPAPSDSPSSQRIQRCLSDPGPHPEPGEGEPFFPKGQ

The test addresses T1, NHE1 (Homo sapiens, UniProt P19634).
T1 construct: expressed in transfected cells
Put plainly: NHE inhibition FLIPR test (intracellular pH recovery, BCECF) in transfected LAP-1 cells. It counts as cell-based. The note with it: transfected cell line (parental LAP-1) expressing the NHE-1 subtype, pHi recovery after acidification. The protocol:
The NHE inhibitory activities (IC50 values) of the compounds according to the invention were determined by a FLIPR test.
The test is performed in the FLIPR (Fluorescent Imaging Plate Reader) equipped with clear-bottomed and black-walled 96-well microtitration plates.
The growth medium for the transfected cells (Iscove +10% foetal calf serum) also comprises G418 as selection antibiotic to ensure the presence of transfected sequences.
The actual test begins by eliminating the growth medium and adding 100 μl of loading buffer per well (5 μM of BCECF-AM [2′,7′-bis(2-carboxyethyl)-5-(6)-carboxyfluoresceine acetoxymethyl ester] in 20 mM of NH4Cl, 115 mM of choline chloride, 1 mM of CaCl2, 5 mM of KCl, 20 mM of HEPES and 5 mM of glucose; pH 7.4 (adjusted with KOH). The cells are then incubated for 20 minutes at 37° C. This incubation results in the loading of the fluorescent dye into the cells, the fluorescence intensity of which depends on the pHi, and on the NH4Cl, which results in a slight basification of the cells.
The precursor BCECF-AM, a non-fluorescent dye, is, as an ester, capable of crossing the membrane. The actual dye, which is incapable of crossing the membrane, is released inside the cell by esterases.
After this 20-minute incubation, the loading buffer, which comprises NH4Cl and free BCECF-AM, is removed by washing three times in the cell washing device (Tecan Columbus), each wash being performed with 400 μl of washing buffer (133.8 mM of choline chloride, 4.7 mM of KCl, 1.25 mM of MgCl2, 1.25 mM of CaCl2, 0.97 mM of K2HPO4, 0.23 mM of KH2PO4, 5 mM of HEPES and 5 mM of glucose; pH 7.4 (adjusted with KOH)). The residual volume remaining in the wells is 90 μl (possibly between 50 and 125 μl). This washing step removes the free BCECF-AM and results in an intracellular acidification (pHi of 6.3-6.4) due to the removal of the external ammonium ions.
As the equilibrium of the intracellular ammonium with the aqueous ammonia and the protons, by removal of the extracellular ammonium and by the subsequent immediate crossing of the aqueous ammonia across the cell membrane, is disrupted, the washing process results in intracellular protons remaining, which is the cause of the intracellular acidification. This acidification can result finally in the death of the cells if it lasts long enough. It is important here for the washing buffer to be free of sodium (<1 mM), otherwise the extracellular sodium ions would result in an immediate increase in the pHi on account of the activity of the cloned NHE isoforms. It is also important for all the buffers used (loading buffer, washing buffer and regeneration buffer) not to contain any HCO3-ions, otherwise the presence of bicarbonate would result in the activation of bicarbonate-dependent systems that disrupt the pHi regulation, which systems are contained in the LAP-1 parental cell line.
The microtiter plates containing acidified cells are then transferred (up to 20 minutes after the acidification) to the FLIPR. In the FLIPR, the intracellular fluorescent dye is activated with light of a wavelength of 488 nm, which is generated by an argon laser, and the measuring parameters (laser power, illumination time and diaphragm of the […] camera integrated into the FLIPR) are chosen such that the average value of the fluorescent signal per well is between 30,000 and 35,000 relative fluorescence units.
The actual measurement in the FLIPR starts with a photograph being taken by the CCD camera every two seconds under software control. After 10 seconds, the increase in the intracellular pH is initiated by adding 90 μl of regeneration buffer (133.8 mM of NaCl, 4.7 mM of KCl, 1.25 mM of MgCl2, 1.25 mM of CaCl2, 0.97 mM of K2HPO4, 0.23 mM of KH2PO4, 10 mM of HEPES and 5 mM of glucose; pH 7.4 (adjusted with NaOH)) using a 96-well pipette device incorporated into the FLIPR. Some wells, to which is added pure regeneration buffer, serve as positive controls (100% NHE activity). […]
By IC50 is commonly meant the point on the concentration scale where inhibition reaches its midpoint. `N=C(N)NC(=O)CC1c2cc(F)c(F)cc2C(=O)N1CCC(F)(F)F` (racemic) [Example 40, (R)-N-{2-[5,6-Difluoro-3-oxo-2-(3,3,3-trifluoro-propyl)-2,3-dihydro-1H-isoindol-1-yl]-acetyl}-guanidine and (S)-N-{2-[5,6-Difluoro-3-oxo-2-(3,3,3-trifluoro-propyl)-2,3-dihydro-1H-isoindol-1-yl]-acetyl}-guanidine]: the IC50 was 29 nM. Take `[H]/N=C(\N)NC(=O)CC1c2cc(Cl)c(Cl)cc2C(=O)N1CC1CC1` (racemic) [Example 42, (R)-N-[2-(5,6-Dichloro-2-cyclopropylmethyl-3-oxo-2,3-dihydro-1H-isoindol-1-yl)-acetyl]-guanidine and (S)-N-[2-(5,6-Dichloro-2-cyclopropylmethyl-3-oxo-2,3-dihydro-1H-isoindol-1-yl)-acetyl]-guanidine]: the half-inhibitory concentration (IC50) was determined as 18 nM. Regarding `NC(N)=NC(=O)CC1c2cc(Cl)c(Cl)cc2C(=O)N1C1CC1` (racemic) [Example 43, (R)-N-[2-(5,6-Dichloro-2-cyclopropyl-3-oxo-2,3-dihydro-1H-isoindol-1-yl)-acetyl]-guanidine and (S)-N-[2-(5,6-Dichloro-2-cyclopropyl-3-oxo-2,3-dihydro-1H-isoindol-1-yl)-acetyl]-guanidine], the IC50 turned out to be 30 nM. The figure for `CC(C(=O)NC(=N)N)C1c2ccccc2C(=O)N1CCO` (single isomer, unassigned) [Example 33] is 3600 nM and 4700 nM; for `[H]/N=C(\N)NC(=O)CC1c2cc(S(C)(=O)=O)ccc2C(=O)N1CC(F)(F)F` (single isomer, unassigned) [Example 36a] it is 524 nM. Then `[H]/N=C(\N)NC(=O)CC1c2cc(S(C)(=O)=O)ccc2C(=O)N1CC(F)(F)F` (single isomer, unassigned) [Example 36b], with 6 nM. As for `NC(N)=NC(=O)CC1c2cc(C(F)(F)F)ccc2C(=O)N1CC1CC1` (single isomer, unassigned) [Example 38a], the IC50 stood at 249 nM. The figure for `NC(N)=NC(=O)CC1c2cc(C(F)(F)F)ccc2C(=O)N1CC1CC1` (single isomer, unassigned) [Example 38b] is 5 nM. As for `N=C(N)NC(=O)CC1c2cc(F)c(F)cc2C(=O)N1CCC(F)(F)F` (single isomer, unassigned) [Example 40a], the IC50 was found to be 263 nM. The figure for `N=C(N)NC(=O)CC1c2cc(F)c(F)cc2C(=O)N1CCC(F)(F)F` (single isomer, unassigned) [Example 40b] is 63 nM. Turning to `[H]/N=C(\N)NC(=O)CC1c2cc(Cl)c(Cl)cc2C(=O)N1CCC(F)(F)F` (single isomer, unassigned) [Example 41b], the IC50 was found to be 41 nM. For the compound `[H]/N=C(\N)NC(=O)CC1c2cc(Cl)c(Cl)cc2C(=O)N1CCC(F)(F)F` (single isomer, unassigned) [Example 41c], the concentration for half-maximal inhibition (IC50) came to 19 nM.

Consider `[H]/N=C(\N)NC(=O)CC1c2cc(Cl)c(Cl)cc2C(=O)N1CC1CC1` (single isomer, unassigned) [Example 42a], for which the half-maximal inhibitory concentration (IC50) stood at 66 nM. `[H]/N=C(\N)NC(=O)CC1c2cc(Cl)c(Cl)cc2C(=O)N1CC1CC1` (single isomer, unassigned) [Example 42b]: the IC50 amounted to 3 nM. As for `NC(N)=NC(=O)CC1c2cc(Cl)c(Cl)cc2C(=O)N1C1CC1` (single isomer, unassigned) [Example 43a], the half-inhibitory concentration (IC50) came to 53 nM. `NC(N)=NC(=O)CC1c2cc(Cl)c(Cl)cc2C(=O)N1C1CC1` (single isomer, unassigned) [Example 43b]: the 50% inhibitory concentration (IC50) amounted to 442 nM. Consider `NC(N)=NC(=O)CC1c2cc(Cl)c(Cl)cc2C(=O)N1CC(F)(F)F` (single isomer, unassigned) [Example 44b], for which the IC50 worked out at 13 nM. The figure for `NC(N)=NC(=O)CC1c2cc(Cl)c(Cl)cc2C(=O)N1CC(F)(F)F` (single isomer, unassigned) [Example 44c] is 260 nM; for `NC(N)=NC(=O)CC1c2cc(C(F)(F)F)ccc2C(=O)N1CC(F)(F)F` (single isomer, unassigned) [Example 46a] it is 19 nM.
